According to patent US6784137B2, “6-aryl-4-aminopicolinates and their use as herbicides” (Dow AgroSciences LLC, priority 2001, dated 2004):
Read-outs that look alike come from different tables or passages of the source.

Experiments:
[1] = system: Barnyardgrass (Echinochloa crus-galli); assay: Postemergence herbicidal activity, greenhouse spray; format: in vivo; details: Echinochloa crus-galli, post-emergence, 336 h, visual score after 2 weeks, read-out: Post-emergent % control ECHCG; for pest or weed control at 500 ppm / pest or weed control at 250 ppm: Table 1; for pest or weed control at 500 ppm: rate 500 ppm; for pest or weed control at 250 ppm: rate 250 ppm
Summary of the method: (§1)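 Greenhouse-grown plants (7–21 days, ~15 h photoperiod, 23–29 °C day) at first or second true leaf stage were sprayed to full coverage with compound in acetone/water/isopropanol/DMSO/crop oil/Triton X-155 carrier. Controls received carrier alone; plants were sub-irrigated afterwards.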

[2] = system: Cocklebur (Xanthium strumarium); assay: as above; format: in vivo; details: Xanthium strumarium, post-emergence, 336 h, visual score after 2 weeks, read-out: Post-emergent % control XANST; for pest or weed control at 500 ppm / pest or weed control at 250 ppm: Table 1; for pest or weed control at 500 ppm: rate 500 ppm, 0 no injury, 100 complete kill; for pest or weed control at 250 ppm: rate 250 ppm
Summary of the method: as §1

[3] = system: Lambsquarter (Chenopodium album); assay: as above; format: in vivo; details: Chenopodium album, post-emergence, 336 h, visual score after 2 weeks, read-out: Post-emergent % control CHEAL; for pest or weed control at 500 ppm / pest or weed control at 250 ppm: Table 1; for pest or weed control at 500 ppm: rate 500 ppm; for pest or weed control at 250 ppm: rate 250 ppm
Summary of the method: as §1

[4] = system: Pigweed (redroot) (Amaranthus retroflexus); assay: as above; format: in vivo; details: visual score after 2 weeks; for pest or weed control at 62.5 µg/mL: Amaranthus retroflexus, post-emergence, 336 h, rate 62.5 (unit inferred), read-out: Post-emergent % control AMARE; for Post-emergent % control AMARE: rate 62.5 (unit not given)
Summary of the method: as §1

[5] = system: Yellow nutsedge (Cyperus esculentus); assay: as above; format: in vivo; details: Cyperus, post-emergence, 336 h, visual score after 2 weeks, read-out: Post-emergent % control CYPES; for pest or weed control at 500 ppm / pest or weed control at 250 ppm: Table 1; for pest or weed control at 500 ppm: rate 500 ppm; for pest or weed control at 250 ppm: rate 250 ppm
Summary of the method: as §1

[6] = system: Wheat(var. Merica) (Triticum aestivum); assay: Postemergence herbicidal activity, selectivity to wheat; format: in vivo; details: post-emergence, 336 h, Table 3, rate 62.5 (unit inferred), crop injury, read-out: Post-emergent % control TRZAS
Protocol: (§2) Seeds of the desired test plant species were planted in Grace-Sierra MetroMix® 306 planting mixture, which typically has a pH of 6.0 to 6.8 and an organic matter content of about 30 percent, in plastic pots with a surface area of 64 square centimeters. When required to ensure good germination and healthy plants, a fungicide treatment and/or other chemical or physical treatment was applied. The plants were grown for 7-21 days in a greenhouse with an approximate 15 hr photoperiod which was maintained at about 23-29° C. during the day and 22-28° C. during the night. Nutrients and water were added on a regular basis and supplemental lighting was provided with overhead metal halide 1000-Watt lamps as necessary. The plants were employed for testing when they reached the first or second true leaf stage. A weighed amount, determined by the highest rate to be tested, of each test compound was placed in a 20 mL glass vial and was dissolved in 4 mL of a 97:3 v/v (volume/volume) mixture of acetone and dimethyl sulfoxide (DMSO) to obtain concentrated stock solutions. […] The concentrated stock solutions obtained were diluted with an aqueous mixture containing acetone, water, isopropyl alcohol, DMSO, At plus 411 F crop oil concentrate, and Triton X-155 surfactant in a 48.5:39:10:1.5:1.0:0.02 v/v ratio to obtain spray solutions of known concentration. The solutions containing the highest concentration to be tested were prepared by diluting 2 mL aliquots of the stock solution with 13 mL of the mixture and lower concentrations were prepared by serial dilution of the stock solution. Approximately 1.5 mL aliquots of each solution of known concentration were sprayed evenly onto each of the test plant pots using a DeVilbiss atomizer driven by compressed air pressure of […] (140 to 280 kiloPascals) to obtain thorough coverage of each plant. Control plants were sprayed in the same manner with the aqueous mixture. In this test an application rate of 1 ppm results in the application of approximately 1 g/Ha. The treated plants and control plants were placed in a greenhouse as described above and watered by sub-irrigation to prevent wash-off of the test compounds. After 2 weeks the condition of the test plants as compared with that of the untreated plants was determined visually and scored on a scale of 0 to 100 percent where 0 corresponds to no injury and 100 corresponds to complete kill.

[7] = system: Corn (#14 3377) (Zea mays); assay: Postemergence herbicidal activity, selectivity to corn; format: in vivo; details: post-emergence, 336 h, Table 4, rate 62.5 (unit inferred), crop injury, read-out: Post-emergent % control ZEAMX
Protocol: as §2

[8] = system: Crabgrass(large) (Digitaria sanguinalis); assay: Preemergence herbicidal activity, soil spray; format: in vivo; details: Digitaria sanguinalis, pre-emergence, 504 h; Table 5; rate 560 ppm; visual score after 3 weeks; read-out: Pre-emergent % control DIGSA
Summary of the method: (§3)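 Soil spray, preemergence: loam/sand 70:30 (pH ~8.1, OM ~1.5%) → seeded pots treated on surface; compound in acetone/DMSO 97:3, serially diluted into water/Tween 155 (99.9:0.1). Controls got aqueous carrier only. Greenhouse: ~15 h light, 23-29° C day / 22-28° C night.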

[9] = system: Giant Foxtail (Setaria faberi); assay: Preemergence herbicidal activity, soil spray; format: in vivo; details: Setaria faberi, pre-emergence, 504 h, Table 5; rate 560 ppm; visual score after 3 weeks; read-out: Pre-emergent % control SETFA
Summary of the method: as §3

[10] = system: Lambsquarter (Chenopodium album); assay: Preemergence herbicidal activity, soil spray; format: in vivo; details: Chenopodium album, pre-emergence, 504 h; Table 5; rate 560 ppm; visual score after 3 weeks, 100 complete kill or no germination; read-out: Pre-emergent % control CHEAL
Summary of the method: as §3

[11] = system: Pigweed (redroot) (Amaranthus retroflexus); assay: Preemergence herbicidal activity, soil spray; format: in vivo; details: Amaranthus retroflexus, pre-emergence, 504 h; Table 5; rate 560 ppm; visual score after 3 weeks; read-out: Pre-emergent % control AMARE
Summary of the method: as §3

melting point [°C] | Compound | pest or weed control at 500 ppm [1] [%] | pest or weed control at 500 ppm [2] [%] | pest or weed control at 500 ppm [3] [%] | pest or weed control at 62.5 µg/mL ([4]; Table 3) [%] | Post-emergent % control AMARE ([4]; Table 4) [%] | pest or weed control at 500 ppm [5] [%] | pest or weed control at 62.5 µg/mL [6] [%] | pest or weed control at 62.5 µg/mL [7] [%] | pest or weed control at 560 ppm [8] [%] | pest or weed control at 560 ppm [9] [%] | pest or weed control at 560 ppm [10] [%] | pest or weed control at 560 ppm [11] [%] | pest or weed control at 62.5 µg/mL ([4]; Table 4) [%] | also measured
154 to 156 | COC(=O)c1nc(-c2ccc(C)c(C)c2)cc(N)c1Cl [Compound 12, methyl 4-amino-3-chloro-6-(3,4-dimethylphenyl)pyridine-2-carboxylate] | 95 | 100 | 95 | 70 | 70 | 30 | 0 | 10 | 40 | 30 | 98 | 100 |  | 
98 | COC(=O)c1nc(-c2cccc(C)c2)cc(N)c1Cl [Compound 21, Methyl 4-amino-3-chloro-6-(3-methylphenyl)pyridine-2-carboxylate] |  |  |  | 70 | 70 |  | 10 | 0 | 100 | 80 | 100 | 100 |  | pest or weed control at 250 ppm [1]: 0%; pest or weed control at 250 ppm [2]: 100%; pest or weed control at 250 ppm [3]: 100%; pest or weed control at 250 ppm [5]: 70%
125 | COC(=O)c1nc(-c2ccc(F)cc2)cc(N)c1Cl [Compound 43, Methyl 4-amino-3-chloro-6-(4-fluorophenyl)pyridine-2-carboxylate] | 95 | 100 | 100 | 100 | 100 | 100 | 10 | 0 | 100 | 98 | 100 | 100 |  | 
114 to 115 | COC(=O)c1nc(-c2ccc(Cl)cc2C)cc(N)c1Cl [Compound 45, Methyl 4-amino-3-chloro-6-(4-chloro-2-methylphenyl)pyridine-2-carboxylate] |  |  |  |  |  |  |  | 0 |  |  |  |  | 100 | 
151 to 152 | COC(=O)c1nc(-c2ccc(Cl)cc2)cc(NC(C)=O)c1Cl [Compound 53, Methyl 4-acetamido-3-chloro-6-(4-chlorophenyl)pyridine-2-carboxylate] |  |  |  | 70 | 70 |  | 0 | 10 | 100 | 100 | 100 | 100 |  | 
155 to 157 | COC(=O)c1nc(-c2ccc(F)cc2Cl)cc(N)c1Cl [Compound 58, Methyl 4-amino-3-chloro-6-(2-chloro-4-fluorophenyl)pyridine-2-carboxylate] | 70 | 100 | 100 |  |  | 70 |  | 0 |  |  |  |  | 100 | 
176 to 177 | Nc1cc(-c2ccc(Cl)cc2Cl)nc(C(=O)O)c1Cl [Compound 146, 4-Amino-3-chloro-6-(2,4-dichlorophenyl)pyridine-2-carboxylic acid] |  |  |  |  |  |  |  | 0 | 80 | 90 | 100 | 100 | 100 | pest or weed control at 250 ppm [1]: 85%; pest or weed control at 125 ppm ([1]; Table 2, rate 125 ppm): 75%; pest or weed control at 250 ppm [2]: 100%; pest or weed control at 125 ppm ([2]; Table 2, rate 125 ppm): 100%; pest or weed control at 250 ppm [3]: 100%; pest or weed control at 125 ppm ([3]; Table 2, rate 125 ppm): 100%; pest or weed control at 250 ppm [5]: 98%; pest or weed control at 125 ppm ([5]; Table 2, rate 125 ppm): 95%
153 to 154 | Cc1cc(Cl)ccc1-c1cc(N)c(Cl)c(C(=O)O)n1 [Compound 155, 4-Amino-3-chloro-6-(4-chloro-2-methylphenyl)pyridine-2-carboxylic acid] |  |  |  |  |  |  |  | 0 |  |  |  |  | 100 | 
